Assay results as given in paper PMC5618791, “Double quick, double click reversible peptide “stapling”” (Chemical Science, 2017).
Starred links: 1 amine or outer side, 2 acyl side, 3 side chain; linkers in the order of their positions; H or OH if unused. Positions of bridges follow the written chain, without caps; N, C: chain ends. Non-standard residues stand in square brackets, D forms with d. Residues, ends and D or L forms follow the SMILES beside them. Maleimide(3,4-diyl) = O=C1NC(=O)C([*:2])=C1[*:1]; Nle = CCCC[C@H](N)C(=O)O

Legend:
[1] = Trypsin proteolysis followed by LC-MS; type: in vitro ADME; conditions: trypsin from bovine pancreas (isolated protease), pH 7.5, 1:10000 enzyme/substrate ratio, 50 mM phosphate buffer, 200 mM NaCl, pH 7.50, peptide 200 μM stock, 5% DMSO, LC-MS of intact peptide at 0, 5, 12, 21, 45, 90 min, read-out: t1/2, trypsin proteolysis
Procedure: Proteolysis studies on BID peptides
Trypsin, modified sequencing grade from bovine pancreas (lyophilized powder, MW = 24 kDa, ≥ 4 units/mg protein) was purchased from Sigma-Aldrich and used without further purification. BID peptides (200 µM stock in PBS buffer pH 7.50, 5% DMSO) were treated with Trypsin (0.02 µM stock solutions in PBS buffer pH 7.50) in a 1:10000 enzyme/substrate ratio.
The degradation was followed with LCMS (Aeris Peptide LC-Column XB-C18 2.6 µm, 100x2.1 mm, injection volume: 5 µL, acetonitrile/water (0.1% formic acid) 5-95% gradient).
The degradation pattern of each peptide (figure A) could be identified by mass spectrometry.
The cleavage sites are marked by dotted lines and the subsequent fragment masses, shown in squares, are allocated to a number which is reported on the LCMS graph (graph B).
The LCMS traces (graph B) of each peptide incubated with Trypsin were recorded at the following successive times: 0, 5, 12, 21, 45 and 90 min.
(graph C) was integrated to extract kinetic values.

[2] = Circular dichroism, % helicity; type: physicochemical; conditions: CD, peptide 10-20 μM, calculated from MRE at 222 nm
Procedure: Samples were prepared in two different solvent systems (30% TFE:H2O, 30% CH3CN:water) to concentrations between 10 - 20 μM (Figure S 23). Considering the high number of hydrophobic residues in BID and S peptides, organic co-solvents were used to ensure good solubility and avoid aggregation at concentrations high enough for CD analyses. DMSO stocks of peptides were not used for CD due to its high absorbance below 230 nm.
The raw circular dichroism data obtained for the peptides was processed by the subtraction of the solvent signal and converted into a mean residue ellipticity:
Where = molar ellipticity[θ]MRE per residue, θ = circular dichroism at a given wavelength, c = molar concentration, l = path length in cm, R = number of residues in the peptide sequence.
Calculation of % helicity was performed by the following equation:[4]
Where: θH = Theoretical MRE for 100% helicity at 222 nm, θ0 = Theoretical MRE for 100% helicity at 222 nm at 0 °C = –44000, (∂θ/∂T) = temperature dependence of infinite helix = +250, T = temperature in °C, x = 3, Nr = number of residues in the peptide.
In both solvent systems, it is noteworthy that STA-peptides are more helical than RED-peptides or WT-peptides; with the exception of constrained S-Cys-peptides. The use of TFE as co-solvent in water enhances the α-helicity of both series of peptides compared to the use of acetonitrile in water. […]
thus bioactive) conformation. The S peptides show a low helix propensity which is consistent […]
Figure S 23: CD spectra A. and B. in 30% TFE:H 2O; C. and D. in 30% CH3CN:H 2O.
Table 1: Percentage of helicity in the three solvent systems […]
(also on this page, place not known: Molar residue ellipticity (deg.cm 2 .dmol -1 ) Molar residue ellipticity (deg.cm 2 .dmol -1 ) Molar residue ellipticity (deg.cm 2 .dmol -1 ) Molar residue ellipticity (deg.cm 2 .dmol -1 ) TFE:H2O; CH3CN:H2O.)

[3] = target: FITC-BID/Mcl-1 interaction (Homo sapiens, UniProt Q07820); assay: Fluorescence anisotropy competition assay, FITC-BID/Mcl-1; type: binding; conditions: 25 nM tracer, 150 nM protein, 50 mM Tris, 150 mM NaCl, 0.61% Triton X-100, pH 7.40; 1 h, room temperature; triplicate; read-out: IC50, inhibition of the FITC-BID/Mcl-1 interaction
Procedure: fluorescein-labelled FITC-Ahx-BID (80-102) was synthesised and purified as stated […]
(§1) Fluorescence anisotropy assays were performed in 384-well black plates (Greiner Bio-one).
(§2) Each experiment was run in triplicate and fluorescence anisotropy was measured using a Perkin Elmer EnVisionTM 2103 MultiLabel plate reader. […]
- 50 mM phosphate buffer at pH 7.5, containing 200 mM NaCl and 0.05% of tween for […]
(§3) 20 µL of assay buffer were first added to each well.
(§4) For each competition assay, 20 µL of a solution of α-helix mimetics (1 mM in 90:10 (v/v) assay buffer: DMSO) were added to the first column. The solution was well mixed and 20 µL were taken out and added to the next column and so on. This operation consisted on serial dilution of the peptides across the plate (24-points, 1/2 serial dilution). The tracer peptide and the targeted protein were added to each well to give a final concentration of 25 nM and […]
(§5) For control wells in both assays, the tracer peptide was replaced with an identical volume of assay buffer. […] Plates were read after 1 h of incubation […]
(§6) The average anisotropy (across three experimental replicates) and the standard deviation of these values were then calculated and fit to a sigmoidal logistic model (Equation 3) using OriginPro 9.0 which provided the IC50 and error values.

[4] = target: BODIPY-BAK/Bcl-xL interaction (Homo sapiens, UniProt Q07817); assay: Fluorescence anisotropy competition assay, BODIPY-BAK/Bcl-xL; type: binding; conditions: 25 nM tracer, 150 nM protein, 50 mM phosphate, 200 mM NaCl, 0.02 mg mL-1 BSA, pH 7.50; 1 h, room temperature; triplicate; read-out: IC50, inhibition of the BODIPY-BAK/Bcl-xL interaction
Procedure: as §1, §2
- 50 mM phosphate buffer at pH 7.5, containing 200 mM NaCl and 0.02 mg.mL-1 bovine serum albumin (BSA) for BODIPY-BAK/Bcl-xL. […]
as §3, §4
For each direct titration assay, 20 µL of a solution of the protein (60 µM in assay buffer) were added to the first column. […]
as §5, §6

FITC-BID/Mcl-1 interaction, sequence (Q07820 172-327 limits assumed): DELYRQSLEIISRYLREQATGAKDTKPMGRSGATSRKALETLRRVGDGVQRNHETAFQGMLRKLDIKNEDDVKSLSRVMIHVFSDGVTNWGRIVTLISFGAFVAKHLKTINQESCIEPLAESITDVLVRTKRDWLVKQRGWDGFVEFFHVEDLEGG
BODIPY-BAK/Bcl-xL interaction, sequence (Q07817 whole entry): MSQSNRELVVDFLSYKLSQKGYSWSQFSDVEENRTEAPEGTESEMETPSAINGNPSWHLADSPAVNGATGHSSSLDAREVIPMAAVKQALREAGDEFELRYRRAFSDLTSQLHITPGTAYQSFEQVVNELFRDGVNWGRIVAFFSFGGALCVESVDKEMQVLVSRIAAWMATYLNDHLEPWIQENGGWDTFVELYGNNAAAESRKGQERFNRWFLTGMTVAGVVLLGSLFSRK

| half-life [1] [min] | Percentage of helicity, 30% CH3CN:H2O ([2]; 30% CH3CN:H2O) [%] | Percentage of helicity, 30% TFE:H2O [2] [%] | IC50 [3] [µM] | IC50 [4] [µM] | Structure (SMILES) |
| --- | --- | --- | --- | --- | --- |
| 84 | 43 | 47 |  |  | CCCC[C@H](NC(=O)[C@@H]1CCSC2=C(SCC[C@H](NC(=O)[C@H](C)NC(=O)[C@H](CC(C)C)NC(=O)[C@H](Cc3c[nH]cn3)NC(=O)[C@H](CCCNC(=N)N)NC(=O)[C@H](C)NC(=O)[C@@H](NC(=O)[C@H](CC(N)=O)NC(=O)[C@H](CCCNC(=N)N)NC(=O)[C@@H](NC(=O)[C@@H](NC(=O)[C@H](CC(=O)O)NC(=O)[C@H](CCC(=O)O)NC(C)=O)[C@@H](C)CC)[C@@H](C)CC)[C@@H](C)CC)C(=O)N[C@@H](C(C)C)C(=O)NCC(=O)N[C@@H](CC(=O)O)C(=O)N1)C(=O)NC2=O)C(=O)N[C@@H](CC(=O)O)C(=O)N[C@@H](CCCNC(=N)N)C(=O)N[C@@H](CO)C(=O)N[C@H](C(=O)N[C@@H](Cc1c[nH]c2ccccc12)C(N)=O)[C@@H](C)CC [3b] |
| 75 |  |  | 16.6 | 19.4 | CCCC[C@H](NC(=O)[C@@H]1CSC2=C(SC[C@H](NC(=O)[C@H](C)NC(=O)[C@H](CC(C)C)NC(=O)[C@H](Cc3c[nH]cn3)NC(=O)[C@H](CCCNC(=N)N)NC(=O)[C@H](C)NC(=O)[C@@H](NC(=O)[C@H](CC(N)=O)NC(=O)[C@H](CCCNC(=N)N)NC(=O)[C@@H](NC(=O)[C@@H](NC(=O)[C@H](CC(=O)O)NC(=O)[C@H](CCC(=O)O)NC(C)=O)[C@@H](C)CC)[C@@H](C)CC)[C@@H](C)CC)C(=O)N[C@@H](C(C)C)C(=O)NCC(=O)N[C@@H](CC(=O)O)C(=O)N1)C(=O)NC2=O)C(=O)N[C@@H](CC(=O)O)C(=O)N[C@@H](CCCNC(=N)N)C(=O)N[C@@H](CO)C(=O)N[C@H](C(=O)N[C@@H](Cc1c[nH]c2ccccc12)C(N)=O)[C@@H](C)CC [3a] (Ac-EDIIRNIARHLACVGDC[Nle]DRSIW-NH2; linker 13-17 via Maleimide(3,4-diyl)) |
| 22 |  |  | 23.4 | 70.9 | CCCC[C@H](NC(=O)[C@H](CS)NC(=O)[C@H](CC(=O)O)NC(=O)CNC(=O)[C@@H](NC(=O)[C@H](CS)NC(=O)[C@H](C)NC(=O)[C@H](CC(C)C)NC(=O)[C@H](Cc1c[nH]cn1)NC(=O)[C@H](CCCNC(=N)N)NC(=O)[C@H](C)NC(=O)[C@@H](NC(=O)[C@H](CC(N)=O)NC(=O)[C@H](CCCNC(=N)N)NC(=O)[C@@H](NC(=O)[C@@H](NC(=O)[C@H](CC(=O)O)NC(=O)[C@H](CCC(=O)O)NC(C)=O)[C@@H](C)CC)[C@@H](C)CC)[C@@H](C)CC)C(C)C)C(=O)N[C@@H](CC(=O)O)C(=O)N[C@@H](CCCNC(=N)N)C(=O)N[C@@H](CO)C(=O)N[C@H](C(=O)N[C@@H](Cc1c[nH]c2ccccc12)C(N)=O)[C@@H](C)CC [1a] (Ac-EDIIRNIARHLACVGDC[Nle]DRSIW-NH2) |
| 32 |  | 23 |  |  | CCCC[C@H](NC(=O)[C@H](CCS)NC(=O)[C@H](CC(=O)O)NC(=O)CNC(=O)[C@@H](NC(=O)[C@H](CCS)NC(=O)[C@H](C)NC(=O)[C@H](CC(C)C)NC(=O)[C@H](Cc1c[nH]cn1)NC(=O)[C@H](CCCNC(=N)N)NC(=O)[C@H](C)NC(=O)[C@@H](NC(=O)[C@H](CC(N)=O)NC(=O)[C@H](CCCNC(=N)N)NC(=O)[C@@H](NC(=O)[C@@H](NC(=O)[C@H](CC(=O)O)NC(=O)[C@H](CCC(=O)O)NC(C)=O)[C@@H](C)CC)[C@@H](C)CC)[C@@H](C)CC)C(C)C)C(=O)N[C@@H](CC(=O)O)C(=O)N[C@@H](CCCNC(=N)N)C(=O)N[C@@H](CO)C(=O)N[C@H](C(=O)N[C@@H](Cc1c[nH]c2ccccc12)C(N)=O)[C@@H](C)CC [1b] |
